Reference: article PMC7801115, “Preclinical in vitro screening of newly synthesised amidino substituted benzimidazoles and benzothiazoles” (Journal of Enzyme Inhibition and Medicinal Chemistry, 2021)
Like-named read-outs stand apart in the source and are kept apart here.

Experiments:
[1] = Plasma protein binding, equilibrium dialysis; assay type: in vitro ADME; details: for fraction unbound at 4 h, 5 µM: equilibrium dialysis 4 h, 37 °C; for recovery at 4 h, 5 µM: recovery in PPB experiment (value in brackets)
Method: The extent of binding to plasma proteins was assessed using equilibrium dialysis method. Plasma (human and mouse) was spiked with test compounds and three controls (nicardipine and verapamil in both species, acebutolol in human and caffeine in mouse plasma) to obtain final concentration of 5 µM (0.5%DMSO). Hydrated membranes were inserted into equilibrium dialysis unit (HT Dialysis) according to manufacturer’s instructions. The dialysate side was then loaded with appropriate volume of buffer, while the same volume of spiked plasma was added into sample side of the well. Incubation lasted 4 h at 37 °C with gentle shaking. Afterwards, protein precipitation was done by mixing matrix matched aliquot of plasma or buffer with 3 volumes of MeCN/MeOH (2:1) mixture, containing internal standard (diclofenac). After centrifugation (at 4500 rpm, at 4 °C, for 30 min) resulting supernatants were subjected to LC-MS/MS.
(§1) All ADME samples were analysed on a Sciex API 4000 or Sciex API4500 Triple Quadrupole Mass Spectrometer (Sciex, Framingham, MA, USA) coupled to a UHPLC System (Shimadzu Nexera X2; Shimadzu, Kyoto, Japan). Samples were injected onto an UPLC column (HALO2 C18, 2.1 × 20 mm, 2 µm or Phenomenex Luna Omega Polar C18, 30 × 2.1 mm, 1.6 µm) and eluted with a gradient at temperature of 50 °C. The mobile phase was composed of acetonitrile (with 0.1% formic acid) and 0.1% formic acid in deionised water. A total run time was 1 or 1.5 min, with the flow rate of 0.7 ml/min (under gradient conditions). A positive ion mode with turbo spray, an ion source temperature of 500 °C and a dwell time of 150 ms were utilised for mass spectrometric detection. Multiple reaction monitoring (MRM) was used at the specific transitions for each compound/control tested: compound 5c: 361.9 → 304.9; compound 5d: 344.8 → 287.9; compound 5e: 349.8 → 292.9; compound 5 g: 350.8 → 293.9; compound 5 h: 344.0 → 286.9; compound 6a: 276.9 → 220.0; compound 5 b: 319.0 → 262.0; compound 6 b: 302.1 → 245.1; compound 6c: 344.9 → 288.0; compound 6d: 333.0 → 276.0; compound 6e: 316.1 → 259.0; compound 6f: 327.1 → 270.0; compound 6 g: 377.1 → 320.1; testosterone: 289.3→ 97.1; propranolol: 260.1 → 182.8; caffeine: 195.2 → 138.1; acebutolol: 337.2 → 116.2, nicardipine: 480.2 → 315.0; verapamil: 455.4 → 165.1; amprenavir: 506.2 → 245.4; diclofenac: 296.1 → 213.7 or 296.2 → 215.3; eucatropine: 292.2 → 109.1; benfluorex: 352.1 → 230.3, and warfarin: 309.2 → 163.2

A549 = assay: BrdU proliferation assay, 3D cell culture; assay type: cell-based; details: Homo sapiens, A549, 3D cell culture, ±SD, N = 2
Method: (§2) Cells were grown in 96 well Perfecta 3 D hanging drop plates 5000 cell/well for 4 days until spheres were formed (and checked under the microscope). After sphere formation cells were treated with compounds followed by 72 h incubation. Cell viability assay was performed according to the manufacturer’s instruction, using CellTiter GLO 3 D for 3 D cell culture (Promega); cell incubation was 5 min on the shaker followed by 25 min incubation in the dark. Plates were read using PE EnVision luminescence. The results for each of tested compounds are reported as growth percentages from two independent concentrations curves compared with the untreated control cells after drug exposure.
(§3) Proliferation assay was performed using Cell Proliferation ELISA, BrdU (Sigma, St. Louis, MO, USA). Briefly, 48 h hours after compound addition, 10 µM of BrdU was added to each well and incubated for following 24 h. After incubation, single cell suspension was made for 3 D cell culture in the new 96 well plate. Plates were centrifuged and supernatants were removed from each plate (for 2 D and 3 D cell culture) followed by 60 min incubation at 60° C. The rest of the proliferation assay was performed according to the manufacturer instructions.
(§4) Calculation of IC50 data, curves and QC analysis is made by using Excel tools and GraphPadPrism software (La Jolla, CA), v. 5.03. In brief, individual concentration–effect curves are generated by plotting the logarithm of the tested concentration of tested compounds (X) versus corresponding percent inhibition values (Y) using least squares (ordinary) fit. […] QC criteria parameters (Z', S:B, R2, HillSlope) were checked for every IC50 curve.

NCI-H358 = assay: BrdU proliferation assay, 3D cell culture; assay type: cell-based; details: Homo sapiens, NCI-H358, 3D cell culture, ±SD, N = 2
Method: as §2, §3, §4

Stability in plasma = assay type: in vitro ADME; details: 37 °C
Method: Tested compounds (final concentration of 5 µM, 0.5% DMSO) were incubated for 4 h at 37 °C in human and mouse plasma, respectively. Aliquots were taken at different time points (0, 30, 120 and 240 min) and reaction was terminated by addition of a MeCN/MeOH (2:1) mixture, containing internal standard (diclofenac). Samples were then centrifuged (at 4500 rpm, at 4 °C, for 30 min) and resulting supernatants were subjected to LC-MS/MS analysis. The same procedure was followed for controls used in the assay: propranolol (both species), benfluorex (mouse) and eucatropine (human), respectively.
as §1

[2] = human plasma, read-out: PPB % bound, Human (converted)
[3] = mouse plasma, read-out: PPB % bound, Mouse (converted)

Row | SMILES | fraction unbound at 4 h, 5 µM [1, 2] | recovery at 4 h, 5 µM ([1]; human plasma) [%] | fraction unbound at 4 h, 5 µM [1, 3] | recovery at 4 h, 5 µM ([1]; mouse plasma) [%] | IC50 (A549) [µM] | IC50 (NCI-H358) [µM] | remaining at 4 h, 5 µM (Stability in plasma; human plasma) [%] | remaining at 4 h, 5 µM (Stability in plasma; mouse plasma) [%] | melting point [°C]
1 | c1ccc2sc(-c3nc4cc(C5=NCCCN5)ccc4[nH]3)cc2c1 [Compound 6d, 2-(Benzo[b]thiophen-2-yl)-5(6)–(3,4,5,6-tetrahydropyrimidin-1-ium-2-yl)benzimidazole chloride] | 0.074 | 86 | 0.061 | 89 | > 100 | > 100 | 95 | 92 | –
2 | Cl.c1ccc2sc(-c3nc4ccc(C5=NCCCN5)cc4s3)nc2c1 [Compound 5g, 2-(Benzothiazole-2-yl)-6–(3,4,5,6-tetrahydropyrimidin-1-ium-2-yl)benzothiazole chloride] | 0.049 | 94 | 0.04 | 85 | 14 ± 3.07 | 7 ± 2.33 | 86 | 81 | > 300
3 | FC(F)(F)c1ccc(-c2nc3cc(C4=NCCCN4)ccc3[nH]2)cc1 [Compound 6c, 2–(4-Trifluoromethylphenyl)-5(6)–(3,4,5,6-tetrahydropyrimidin-1-ium-2-yl)benzimidazole chloride] | 0.144 | 97 | 0.13 | 117 | > 100 | > 100 | 96 | 94 | –
4 | c1ccc2c(c1)cc(-c1nc3cc(C4=NCCCN4)ccc3[nH]1)c1ccccc12 [Compound 6g, 2-(Phenanthrene-9-yl)-5(6)–(3,4,5,6-tetrahydropyrimidin-1-ium-2-yl)benzimidazole chloride] | 0.015 | 96 | 0.003 | 95 | > 100 | > 100 | 85 | 81 | –
5 | Cl.c1ccc2sc(-c3nc4ccc(C5=NCCCN5)cc4s3)cc2c1 [Compound 5e, 2-(Benzo[b]thiophen-2-yl)-6–(3,4,5,6-tetrahydropyrimidin-1-ium-2-yl)benzothiazole chloride] | 0.021 | 79 | 0.013 | 82 | 23 ± 6.24 | 5 ± 0.81 | 82 | 77 | > 300
6 | Cl.c1ccc2cc(-c3nc4ccc(C5=NCCCN5)cc4s3)ccc2c1 [Compound 5h, 2-(Naphthalene-2-yl)-6–(3,4,5,6-tetrahydropyrimidin-1-ium-2-yl)benzothiazole chloride] | 0.024 | 80 | 0.027 | 85 | 14 ± 0.06 | 1 ± 0.81 | 74 | 85 | > 300
7 | Cl.c1ccc2nc(-c3nc4ccc(C5=NCCCN5)cc4s3)ccc2c1 [Compound 5d, 2-(Quinoline-2-yl)-6–(3,4,5,6-tetrahydropyrimidin-1-ium-2-yl)benzothiazole chloride] | 0.053 | 76 | 0.04 | 82 | 16 ± 1.3 | 13 ± 1.65 | 81 | 85 | > 300
8 | Cl.N#Cc1ccc(-c2nc3ccc(C4=NCCCN4)cc3s2)cc1 [Compound 5b, 2–(4-Cyanophenyl)-6–(3,4,5,6-tetrahydropyrimidin-1-ium-2-yl)benzothiazole chloride] | 0.334 | 93 | 0.249 | 98 | 87 ± 0.11 | > 100 | 86 | 95 | > 300
9 | c1ccc2c(-c3nc4ccc(C5=NCCCN5)cc4[nH]3)c[nH]c2c1 [Compound 6e, 2-(1H-Indol-3-yl)-5(6)–(3,4,5,6-tetrahydropyrimidin-1-ium-2-yl)benzimidazole chloride] | 0.349 | 81 | 0.259 | 91 | > 100 | > 100 | 98 | 84 | –
10 | c1ccc2cc(-c3nc4cc(C5=NCCCN5)ccc4[nH]3)ccc2c1 [Compound 6f, 2-(Naphthalene-2-yl)-5(6)–(3,4,5,6-tetrahydropyrimidin-1-ium-2-yl)benzimidazole chloride] | 0.19 | 91 | 0.12 | 102 | > 100 | > 100 | 106 | – | –
11 | Cl.FC(F)(F)c1ccc(-c2nc3ccc(C4=NCCCN4)cc3s2)cc1 [Compound 5c, 2–(4-Trifluoromethylphenyl)-6–(3,4,5,6-tetrahydropyrimidin-1-ium-2-yl)benzothiazole chloride] | 0.03 | 89 | 0.025 | 86 | 13 ± 0.78 | 4.31 | 83 | 94 | 279 to 283
12 | c1ccc(-c2nc3cc(C4=NCCCN4)ccc3[nH]2)cc1 [Compound 6a, 2-Phenyl-5(6)–(3,4,5,6-tetrahydropyrimidin-1-ium-2-yl)benzimidazole chloride] | 0.403 | 75 | 0.371 | 79 | 12 ± 0.28 | 3 ± 1.41 | 73 | 79 | –
